In US9469878B2, “Methods of treating cancer comprising targeting NQO1” (The Board of Regents of the University of Texas System, priority 2010, dated 2016):
Each block holds one compound with its values, some of them ahead of it.

Experiments:
[1] = test system: PARP1 in A549 NSCLC cells; assay: PAR formation, Western blot; type: cell-based, human; settings: 25 mM, β-lap-treated A549 NSCLC cells
Protocol: Whole-cell extracts were prepared, proteins separated by SDSPAGE, and Western blots developed using SuperSignal® West Pico Chemiluminescent substrate (Thermo Scientific, Rockford, Ill.), and exposed using Autoradiography Film (Denville Scientific Inc., Metuchen, N.J.). An anti-human NQO1 antibody was kindly provided to us by Dr. David Ross (University of Colorado Health Science Center, Denver, Colo.) and used at a 1:5000 dilution overnight at 4° C.

PARP1 in MCF-7 cells = assay: Western-blot analyses for PARP1 cleavage; type: cell-based, human; settings: pre-treatment, 4 μM β-lap 2 h pulse
Protocol: For Western-blot analyses for PARP1 cleavage-MCF-7 cells seeded in 10 cm dishes were treated with 4 μM β-lap in the absence or presence of 1000 U of catalase dissolved in hepes buffer pH 7.4 for 2 h. Cells were then given fresh media and incubated at 37° C. for 24 h. Cells were then harvested in PARP1 lysis buffer. Lysates were resolved in 10% SDS-PAGE and immunoblotted onto PVDF membranes and probed with a monoclonal PARP1 antibody (SC-8007). […] Relative PAR levels were calculated by densitometric analyses by NIH ImageJ using PARP1 loading controls. Measurements were normalized to t=0 levels. Western blots shown are representative of separate experiments performed at least three times.

PC-3 cells = assay: Intracellular NAD+ and ATP levels; type: cell-based, human; settings: pre- and co-treatment, 2 or 3 Gy+3 μM β-lap
Protocol: ATP levels were analyzed from whole-cell extracts using CellTiter-Glo Luminescent Cell Viability Assays (Promega, Madison, Wis.) following the manufacture's instructions. Data were graphed as means±SE from at least three independent experiments in triplicates.

NQO1 [2] = target: T1, NQO1 (Homo sapiens, UniProt P15559, P187S); assay: NQO1 enzyme assays using β-lapachone or the standard menadione substrates; type: biochemical; settings: single value given
T1 construct: S9 Supernatants were prepared from cells in mid-log to late log phase growth; endogenous in cells; host or cells: cancer cell lines, mostly from a non-small cell lung cancer panel; S9 supernatants
T1 sequence (P15559 whole entry P187S): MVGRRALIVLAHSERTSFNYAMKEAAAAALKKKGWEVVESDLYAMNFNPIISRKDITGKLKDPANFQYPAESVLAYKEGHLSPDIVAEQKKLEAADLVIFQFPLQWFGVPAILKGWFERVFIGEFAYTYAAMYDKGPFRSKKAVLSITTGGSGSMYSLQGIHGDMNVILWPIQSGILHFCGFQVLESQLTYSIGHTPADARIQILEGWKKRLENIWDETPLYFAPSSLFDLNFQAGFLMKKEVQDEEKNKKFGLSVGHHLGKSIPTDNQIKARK
Protocol: (§1) S9 Supernatants were prepared from cells in mid-log to late log phase growth. […] The cell suspensions were sonicated on ice four times, using 10-s pulses, and then centrifuged at 14,000×g for 20 min. The S9 supernatants were aliquoted into microcentrifuge tubes and stored at −80° C. until used. A 1× protease inhibitor cocktail was added to prevent enzyme activity degradation. […] Menadione was used as the electron acceptor. NADH was used as the electron donor.
(§2) NQO1 activity was measured using NADH (200 μM) as the immediate electron donor and menadione (10 μM) as the intermediate electron acceptor. […] Biochem. Biophys. […] NADH: cytochrome b5 reductase was measured using NADH (200 μM) as the electron donor, and […] was measured using NADPH (200 μM) as electron donor (45) in a Beckman DU 640 spectrophotometer (Beckman Coulter, Fullerton, Calif.). Reactions were carried out at 37° C. and were initiated by the addition of S9 supernatants. Varying amounts of supernatants, from 10 to 40 μL, were used to ensure linearity of rates with protein concentration. […] Results shown are the average enzyme activity for three separate cell extractions±S.D. or both values from duplicate experiments.
(§3) Cell lines, mostly from a 5-panel nonsmall cell lung cancer panel from the UT Southwestern SPORE, were assessed for NQO1 polymorphism status and then monitored for NQO1 enzyme assays using β-lapachone or the standard menadione substrates. […] NQO1*2/*2 and *3/*3 polymorphisms were detected from NQO1 *1/*1 wild-type sequences by PCR-RFLP. Genomic DNA was extracted from the cells using Qiagen spin columns. Using previously described oligonucleotide primers, PCR products underwent gel electrophoresis. Final genotyping was determined based on the size and pattern of separated bands diagnostic for *1/*1 (wild-type), or polymorphic *2/*2 or *3/*3 NQO1 polymorphisms.

NQO1 [3] = target: T2, NQO1 (Homo sapiens, UniProt P15559, R139W); assay: as above; type: biochemical; settings: menadione as substrate
T2 construct: S9 Supernatants were prepared from cells in mid-log to late log phase growth; endogenous in cells; host or cells: cancer cell lines, mostly from a non-small cell lung cancer panel (e.g. Calu-3); S9 supernatants
T2 sequence (P15559 whole entry R139W): as the sequence (P15559 whole entry P187S) above, with R139W, S187P counted along it
Protocol: as §1, §2, §3

NQO1 [4] = assay: as above; type: biochemical, human; settings: menadione as substrate
Protocol: as §1, §2, §3

NQO1 [5] = target: NQO1 (Homo sapiens, UniProt P15559); assay: as above; type: biochemical; set-up: S9 Supernatants were prepared from cells in mid-log to late log phase growth; endogenous in cells; host or cells: cancer cell lines, mostly from a non-small cell lung cancer panel; S9 supernatants; settings: menadione as substrate
NQO1 (Homo sapiens, UniProt P15559), sequence (P15559 whole entry): as the sequence (P15559 whole entry P187S) above, with S187P counted along it
Protocol: as §1, §2, §3

[6] = test system: MDA-MB-231 cells expressing NQO1 (231+); assay: Long term survival assay; type: cell-based, human; settings: 231-NQ+ cells
Protocol: Cells were cultured and treated as described above.
Data were expressed as relative survival (treated/control×100%).

[7] = test system: Human (shown) or mouse rbs; assay: Hemolysis of red blood cells; type: cell-based; settings: rbs incubated with HPβCD alone, HPβCD-β-lap, or β-lap alone in DMSO
Protocol: Human (shown) or mouse rbs were incubated with HPβCD alone or HPβCD-β-lap, or β-lap alone in DMSO.

Compound: NC(=O)c1cccc(N)c1 [3-aminobenzamide]
Effect on PAR formation [1]: spares and delays PAR formation

Compound: CC(=O)OCOC(=O)CN(CC(=O)OCOC(C)=O)c1ccccc1OCCOc1ccccc1N(CC(=O)OCOC(C)=O)CC(=O)OCOC(C)=O [BAPTA-AM]
Effect on β-lap-mediated proteolysis of PARP1 and lethality (PARP1 in MCF-7 cells): prevented

Compound: O=C1NCCc2c(OCCCCN3CCCCC3)cccc21 [DPQ, 3,4-dihydro-5[4-(1-piperindinyl)butoxy]-1(2H)-isoquinoline]
Effect on synergistic losses of ATP (PC-3 cells): prevented

NQO1 activity, Men (NQO1 [2]; H596/NSCLC *2/*2): <1 ± 0.01 nmol/min/µg
NQO1 activity, Men (NQO1 [2]; H2882/NSCLC *2/*2): <1 ± 0.01 nmol/min/µg
NQO1 activity, Men (NQO1 [2]; HCC366/NSCLC *2/*2): <1 ± 0.01 nmol/min/µg
NQO1 activity, Men (NQO1 [2]; MDA-MB-231/Breast *2/*2): 1 ± 0.05 nmol/min/µg
NQO1 activity, Men (NQO1 [2]; MDA-MB-468/Breast *2/*2): <1 ± 0.01 nmol/min/µg
NQO1 activity, Men (NQO1 [3]; Calu-3/NSCLC *3/*3): 48 ± 3 nmol/min/µg
NQO1 activity, Men (NQO1 [3]; H2009/NSCLC *3/*3): 4.0 ± 1 nmol/min/µg
NQO1 activity, Men (NQO1 [3]; HCC1171/NSCLC *3/*3): 98 ± 17 nmol/min/µg
NQO1 activity, Men (NQO1 [3]; T47D/BreastCancer *3/*3): 32 ± 2 nmol/min/µg
NQO1 activity, Men (NQO1 [4]; H292 *1/*2): 169 +/− 17; ND nMoles/min/μg
NQO1 activity, Men (NQO1 [4]; HCC44 *1/*2): 148 ± 14 nmol/min/µg
NQO1 activity, Men (NQO1 [5]; H322 *1/*1): 1234 +/− 40; ND nMoles/min/μg
NQO1 activity, Men (NQO1 [5]; H1648 *1/*1): 1370 +/− 17; ND nMoles/min/μg
NQO1 activity, Men (NQO1 [5]; H1993 *1/*1): 1170 ± 30 nmol/min/µg
NQO1 activity, Men (NQO1 [5]; H2073 *1/*1): 1340 +/− 20; ND nMoles/min/μg
Compound: CC1=CC(=O)c2ccccc2C1=O [Men, menadione]

Compound: CC(=O)N[C@@H](CS)C(=O)O [NAC, N-acetyl-L-cysteine]
Effect on lethal effects of β-lap ([6]; pre- and co-treatments): protected against the lethal effects of 2 μM β-lap, but not 3 μM

Compound: Catalase
Catalase amount that significantly protected cells from the lethal effects of β-lap ([6]; exogenous catalase): ≥ 500 units

Compound: Z-VAD
Effect on β-lap-mediated proteolysis of PARP1 and lethality (PARP1 in MCF-7 cells): ineffective

Compound: hydroxypropyl-β-cyclodextrin [HPβCD]
Hemolysis [7]: caused significant hemolyses
